Where a name gives a salt, the structure may show the parent alone. Read-outs that look alike come from different tables or passages of the source.
Experiments:
[1] = test system: histamine receptor; conditions: read at 510 nm, blank .400, background .095
Description: (§1) In order to free the histamine receptors from the cell wall, the cells were washed three times in phosphate buffered saline, resuspended at a concentration of 1×10^7 cells per ml in phosphate-buffered saline and either stored at 4° C. for three days or incubated at 46° C. for 90 minutes. The cells were then centrifuged at 1000 X G for ten minutes. The supernatant liquid containing the shed histamine receptors was removed by aspiration and the cell pellet discarded.
(§2) Samples of 200 microliters of heat-inactivated fetal calf sera were added to each well of a polystyrene microtiter plate as a protein pretreatment and the seracontaining plates were incubated at 25° C. for 15 minutes. Each well was then washed twice with phosphate-buffered saline. To each well was added 200 microliters of 1 millimolar trinitrobenzene sulfonate in phosphate-buffered saline, and the plate was incubated at 37° C. for thirty minutes. Each well was then washed three times with phosphate-buffered saline. To each well was then added 200 microliters of histamine receptor in phosphate buffered saline prepared according to the procedure of EXAMPLE 1. The plate was then incubated at 25° C. for thirty minutes. After the incubation, each well was washed three times with phosphate-buffered saline and the plates were allowed to air dry at 25° C. for about 16 hours, then stored at 4° C.

[2] = test system: histamine receptors attached to a solid phase; conditions: anticoagulated human whole blood
Description: (§3) To determine the sensitivity of the histamine assay, an inhibition assay was performed using whole cells with histamine in 0.01M phosphate-bufferedsaline as the inhibitor. The histamine was incubated with 1×10^6cells for 30 minutes. The unbound inhibitor was washed out and the histamine-enzyme added and incubated 30 minutes. After washing out the unbound indicator, the enzyme substrate, p-nitrophenyl phosphate was added and incubated for 1 hour at 37° C. The enzymatic reaction was stopped with 1N aqueous sodium hydroxide and the absorbance at A410 read from a Beckman spectrophotometer. The amount of product formed was inversely proportional to the amount of free histamine bound to the cells.
(§4) Cell surface histamine receptors prepared as described in EXAMPLE 1 were affixed to microtiter plate wells by protein pretreatment (see EXAMPLE 2) of the plate followed by surface activation with 1 millimolar trinitrobenzene sulfonate as described in EXAMPLE 2.
(§5) The various quantities of histamine in phosphate-buffered saline were incubated in several replications with the receptor. […] After washing out the unbound indicator, para-nitrophenyl phosphate was added and incubated for 1 hour at 37° C. The enzymatic reaction was stopped with 1N aqueous sodium hydroxide and the absorbance at A410 read from a Beckman spectrophotometer.
Using the method described in EXAMPLES 6 and 7, the sensitivity of the assay to histamine dissolved in anticoagulated human whole blood was measured.

[3] = test system: histamine receptor on whole cells
Description: The reaction was stopped with 1N aqueous sodium hydroxide and the product formed was quantified spectrophotometrically. The total enzyme activity was determined by incubating 10 microliters of the dilutions of histamine-enzyme with the enzyme substrate for 60 minutes, stopping the reaction with lN aqueous sodium hydroxide and quantifying the product formed.

[4] = test system: histamine receptor on whole cells; conditions: 1×10^6 cells
Description: as §3

[5] = test system: cell surface histamine receptors; conditions: phosphate-buffered saline
Description: as §1, §2, §4, §5

[6] = test system: histamine receptor
Description: as §2

With `NCCc1c[nH]cn1` [Histamine, histamine] the Absorbance ([1]; 25 micrograms histamine per well) was “.310”, the Absorbance ([1]; 50 micrograms histamine per well) was “.285” and the Absorbance ([1]; 75 micrograms histamine per well) was “.205”. The Absorbance ([1]; 100 micrograms histamine per well) was “.125”, the “Percent inhibition of enzyme activity” value ([2]; 1 ng histamine added) was 49% and the “Percent inhibition of enzyme activity” value ([2]; 5 ng histamine added) was 70%. The “Percent inhibition of enzyme activity” value ([2]; 10 ng histamine added) was 79%, the “Percent inhibition of enzyme activity” value ([2]; 25 ng histamine added) was 91% and the “Inhibition of receptor-bound histamine-enzyme stimulation” value [3] was “inhibitable”. For the same compound, the “Effect of added histamine on the enhanced enzyme activity” value ([3]; histamine added before incubation with histamine-alkaline phosphatase) was “inhibited”, the “Percent inhibition of enzyme activity” value ([4]; histamine added 500 pg) was 7% and the “Percent inhibition of enzyme activity” value ([4]; histamine added 5 ng) was 14%. The “Percent inhibition of enzyme activity” value ([4]; histamine added 50 ng) was 24%, the “Percent inhibition of enzyme activity” value ([4]; histamine added 500 ng) was 32% and the “Percent inhibition of enzyme activity” value ([4]; histamine added 5 g (so in the source)) was 45%. For the same compound, the “Percent inhibition of enzyme activity” value ([4]; histamine added 50 g (so in the source)) was 69%, the “Percent inhibition of enzyme activity” value ([5]; 0.05 ng histamine added) was 30% and the “Percent inhibition of enzyme activity” value ([5]; 0.1 ng histamine added) was 40%. For the same compound, the “Percent inhibition of enzyme activity” value ([5]; 0.25 ng histamine added) was 46%, the “Percent inhibition of enzyme activity” value ([5]; 0.5 ng histamine added) was 52% and the “Percent inhibition of enzyme activity” value ([5]; 1 ng histamine added) was 60%. The “Percent inhibition of enzyme activity” value ([5]; 5 ng histamine added) was 65%, the “Percent inhibition of enzyme activity” value ([5]; 10 ng histamine added) was 72% and the “Percent inhibition of enzyme activity” value ([5]; 25 ng histamine added) was 79%.

In the case of `[3H]c1nc(CCN)c([3H])[nH]1` [3H-labeled histamine, 2,5-^3 H-histamine hydrochloride], the “Average 3H Counts per minute” value ([6]; control wells (nonspecific binding)) is reported as 1172 Counts per minute and the “Average 3H Counts per minute” value ([6]; receptor wells) is reported as 7968 Counts per minute.

Reference: patent publication US4544629A, “Receptor-based histamine assay” (Minnesota Mining and Manufacturing Company, priority 1982, dated 1985)
